18 compounds from patent publication US20090111798A1, “5,6-DIHYDRO-1H-PYRIDIN-2-ONE COMPOUNDS” (priority 2006, published 2009) can be followed below.

Molecules are shown by their SMILES. Where a name gives a salt, the structure may show the parent alone.

The assay addresses NS5B polymerase (Hepatitis C virus genotype 1b, UniProt P26663). Kind of assay: biochemical. Particulars: NS5B polymerase inhibition; 20 nM enzyme, 75 min at 28° C. The protocol: Compounds were tested for HCV polymerase inhibition. Assays were performed in a 96-well streptavidin-coated FlashPlate using 20 nM enzyme, 0.5μ Ci of [α-^33P]GTP, 0.6 μM GTP, and 250 nM 5′biotinylated oligo (rG13)/poly rC in 20 mM Tris-HCl, pH 7.5, 5 mM MgCl2, 5 mM dithiothreitol, 0.1 g/L bovine serum albumin, and 100 U/mL RNAse inhibitor. The reaction was stopped by aspiration after 75 min at 28° C. and the plate was washed several times. After washing and drying the plate, incorporated radioactivity was counted using a Microbeta scintillation counter. IC50 values were calculated relative to the uninhibited control and inhibition data were fitted to a 4-parameter IC50 equation.

Sequence of NS5B polymerase (P26663 2420-3010): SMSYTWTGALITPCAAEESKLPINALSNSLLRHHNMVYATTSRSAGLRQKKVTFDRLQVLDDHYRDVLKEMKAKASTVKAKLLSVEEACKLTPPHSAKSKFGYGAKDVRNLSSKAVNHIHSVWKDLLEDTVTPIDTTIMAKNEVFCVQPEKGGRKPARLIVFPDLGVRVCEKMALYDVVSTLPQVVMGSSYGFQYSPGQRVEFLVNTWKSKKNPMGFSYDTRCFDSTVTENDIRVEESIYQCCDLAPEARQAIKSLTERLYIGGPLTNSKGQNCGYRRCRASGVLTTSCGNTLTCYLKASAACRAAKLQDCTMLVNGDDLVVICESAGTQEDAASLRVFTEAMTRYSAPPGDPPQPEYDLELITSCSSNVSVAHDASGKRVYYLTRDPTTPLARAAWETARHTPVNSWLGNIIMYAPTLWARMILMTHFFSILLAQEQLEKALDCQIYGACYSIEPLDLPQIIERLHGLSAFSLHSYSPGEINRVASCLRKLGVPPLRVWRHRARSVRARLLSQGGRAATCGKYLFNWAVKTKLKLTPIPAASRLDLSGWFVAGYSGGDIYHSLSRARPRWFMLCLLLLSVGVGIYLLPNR

In the case of `O=C1C(C2=NS(=O)(=O)c3cc(C4CCCS4(=O)=O)ccc3N2)=C(O)[C@@H]2CCC[C@@H]2N1Cc1ccc(F)cc1` (mixture of isomers) [Example 45, (4aR,7aS)-3-[7-(1,1-Dioxo-tetrahydro-1λ^6-thiophen-2-yl)-1,1-dioxo-1,4-dihydro-1λ^6-benzo[1,2,4]thiadiazin-3-yl]-1-(4-fluoro-benzyl)-4-hydroxy-1,4a,5,6,7,7a-hexahydro-[1]pyrindin-2-one], the half-inhibitory concentration (IC50) – broadly, the concentration that gives 50% inhibition – was in the range of 20 to 100 nM.
As to `O=C1C(C2=NS(=O)(=O)c3ccccc3N2)=C(O)C2CCCC2N1Cc1ccc(F)cc1` (mixture of isomers) [Example 51], the IC50 lay within 100 to 1000 nM.
As for `CS(=O)(=O)Nc1ccc2c(c1)S(=O)(=O)N=C(C1=C(O)C3CCCCCC3N(CCC3CC3)C1=O)N2` (mixture of isomers) [Example 58, N-{3-[1-(2-Cyclopropyl-ethyl)-4-hydroxy-2-oxo-2,4a,5,6,7,8,9,9a-octahydro-1H-cyclohepta[b]pyridin-3-yl]-1,1-dioxo-1,4-dihydro-1λ^6-benzo[1,2,4]thiadiazin-7-yl}-methanesulfonamide], the IC50 fell in the range of 20 to 100 nM.
Next, `CS(=O)(=O)Nc1ccc2c(c1)S(=O)(=O)N=C(C1=C(O)[C@@H]3CCC[C@@H]3N(Cc3ccc(F)cc3)C1=O)N2` (relative stereo) [Example 1, cis-N-{3-[1-(4-Fluoro-benzyl)-4-hydroxy-2-oxo-2,4-a,5,6,7,7a-hexahydro-1H-[1]pyrindin-3-yl]-1,1-dioxo-1,4-dihydro-1λ^6-benzo[1,2,4]thiadiazin-7-yl}-methanesulfonamide]: under 20 nM; `CS(=O)(=O)Nc1ccc2c(c1)S(=O)(=O)N=C(C1=C(O)[C@@H]3CCC[C@@H]3N(Cc3ccccn3)C1=O)N2` (relative stereo) [Example 4, cis-N-[3-(4-Hydroxy-2-oxo-1-pyridin-2-ylmethyl-2,4-a,5,6,7,7a-hexahydro-1H-[1]pyrindin-3-yl)-1,1-dioxo-1,4-dihydro-1λ^6-benzo[1,2,4]thiadiazin-7-yl]-methanesulfonamide]: 100 to 1000 nM.
To `CS(=O)(=O)Nc1ccc2c(c1)S(=O)(=O)N=C(C1=C(O)[C@@H]3CCC[C@@H]3N(Cc3ccc(F)cn3)C1=O)N2` (relative stereo) [Example 5, cis-N-{3-[1-(5-Fluoro-pyridin-2-ylmethyl)-4-hydroxy-2-oxo-2,4-a,5,6,7,7a-hexahydro-1H-[1]pyrindin-3-yl]-1,1-dioxo-1,4-dihydro-1λ^6-benzo[1,2,4]thiadiazin-7-yl}-methanesulfonamide] belongs 100 to 1000 nM.
Compound `CN(C)CCN1C(=O)C(C2=NS(=O)(=O)c3cc(NS(C)(=O)=O)ccc3N2)=C(O)[C@@H]2CCC[C@@H]21` (relative stereo) [Example 6] had an IC50 of 1000 to 100000 nM.
In the case of `CS(=O)(=O)Nc1ccc2c(c1)S(=O)(=O)N=C(C1=C(O)[C@@H]3CCC[C@@H]3N(Cc3ccccc3)C1=O)N2` (relative stereo) [Example 7, cis-N-[3-(1-Benzyl-4-hydroxy-2-oxo-2,4-a,5,6,7,7a-hexahydro-1H-[1]pyrindin-3-yl)-1,1-dioxo-1,4-dihydro-1λ^6-benzo[1,2,4]thiadiazin-7-yl]-methanesulfonamide], the IC50 lay within 20 to 100 nM.
Take `CS(=O)(=O)Nc1ccc2c(c1)S(=O)(=O)N=C(C1=C(O)[C@@H]3CCC[C@@H]3N(Cc3cccc(F)c3)C1=O)N2` (relative stereo) [Example 8]: the IC50 is under 20 nM.
To `CS(=O)(=O)Nc1ccc2c(c1)S(=O)(=O)N=C(C1=C(O)[C@@H]3CCC[C@@H]3N(CCc3ccccc3)C1=O)N2` (relative stereo) [Example 9, cis-N-[3-(4-Hydroxy-2-oxo-1-phenethyl-2,4-a,5,6,7,7a-hexahydro-1H-[1]pyrindin-3-yl)-1,1-dioxo-1,4-dihydro-1λ^6-benzo[1,2,4]thiadiazin-7-yl]-methanesulfonamide] belongs 100 to 1000 nM; to `CS(=O)(=O)Nc1ccc2c(c1)S(=O)(=O)N=C(C1=C(O)[C@@H]3CCC[C@@H]3N(C3CCCC3)C1=O)N2` (relative stereo) [Example 10, cis-N-[3-(1-Cyclopentyl-4-hydroxy-2-oxo-2,4-a,5,6,7,7a-hexahydro-1H-[1]pyrindin-3-yl)-1,1-dioxo-1,4-dihydro-1λ^6-benzo[1,2,4]thiadiazin-7-yl]-methanesulfonamide], 1000 to 100000 nM; to `CC(C)CCN1C(=O)C(C2=NS(=O)(=O)c3cc(NS(C)(=O)=O)ccc3N2)=C(O)[C@H]2CCC[C@H]21` (relative stereo) [Example 17, cis-N-{3-[2-(3-Methylbutyl)-5-hydroxy-3-oxo-2-aza-bicyclo[4.3.0]non-4-en-4-yl]-1,1-dioxo-1,4-dihydro-1λ^6-benzo[1,2,4]thiadiazin-7-yl}-methanesulfonamide], under 20 nM.
The compound `CC(C)(C)CCN1C(=O)C(C2=NS(=O)(=O)c3cc(NS(C)(=O)=O)ccc3N2)=C(O)[C@H]2CCC[C@H]21` (relative stereo) [Example 18, cis-N-{3-[2-(3,3-Dimethylbutyl)-5-hydroxy-3-oxo-2-aza-bicyclo[4.3.0]non-4-en-4-yl]-1,1-dioxo-1,4-dihydro-1λ^6-benzo[1,2,4]thiadiazin-7-yl}-methanesulfonamide] came in with an IC50 of under 20 nM.
Turning to `CS(=O)(=O)Nc1ccc2c(c1)S(=O)(=O)N=C(C1=C(O)[C@@H]3CCC[C@@H]3N(CCC3CC3)C1=O)N2` (relative stereo) [Example 19, cis-N-{3-[2-Cyclopropylethyl-5-hydroxy-3-oxo-2-aza-bicyclo[4.3.0]non-4-en-4-yl]-1,1-dioxo-1,4-dihydro-1λ^6-benzo[1,2,4]thiadiazin-7-yl}-methanesulfonamide], the IC50 fell in the range of 20 to 100 nM.
To `NCCS(=O)(=O)Nc1ccc2c(c1)S(=O)(=O)N=C(C1=C(O)[C@@H]3CCC[C@@H]3N(Cc3ccc(F)cc3)C1=O)N2` (relative stereo) [Example 24, cis-2-Amino-ethanesulfonic acid {3-[1-(4-fluoro-benzyl)-4-hydroxy-2-oxo-2,4-a,5,6,7,7a-hexahydro-1H-[1]pyrindin-3-yl]-1,1-dioxo-1,4-dihydro-1λ^6 benzo[1,2,4]thiadiazin-7-yl}-amide] belongs 20 to 100 nM.
To `CS(=O)(=O)Nc1ccc2c(c1)S(=O)(=O)C=C(C1=C(O)[C@@H]3CCC[C@@H]3N(Cc3ccc(F)cc3)C1=O)N2` (relative stereo) [Example 25, cis-N-{3-[1-(4-Fluoro-benzyl)-4-hydroxy-2-oxo-2,4-a,5,6,7,7a-hexahydro-1H-[1]pyrindin-3-yl]-1,1-dioxo-1,4-dihydro-1λ^6-benzo[1,4]thiazin-7-yl}-methanesulfonamide] belongs 20 to 100 nM; to `CS(=O)(=O)Nc1ccc2c(c1)S(=O)(=O)N=C(C1=C(O)[C@@H]3CC=CC[C@@H]3N(Cc3ccc(F)cc3)C1=O)N2` (relative stereo) [Example 37, cis-N-{3-[1-(4-Fluoro-benzyl)-4-hydroxy-2-oxo-1,2,4a,5,8,8a-hexahydro-quinolin-3-yl]-1,1-dioxo-1,4-dihydro-1λ^6 benzo[1,2,4]thiadiazin-7-yl}-methanesulfonamide], 20 to 100 nM.
The compound `CN(C)N1C(=O)C(C2=NS(=O)(=O)c3cc(NS(C)(=O)=O)ccc3N2)=C(O)[C@@H]2CCC[C@@H]21` (relative stereo) [Example 38, cis-N-[3-(1-Dimethylamino-4-hydroxy-2-oxo-2,4-a,5,6,7,7a-hexahydro-1H-[1]pyrindin-3-yl)-1,1-dioxo-1,4-dihydro-1λ^6-benzo[1,2,4]thiadiazin-7-yl]-methanesulfonamide hydrochloride] gave an IC50 of 1000 to 100000 nM.
